Measured values reported in ChEMBL document CHEMBL1649565, “Besifloxacin, a novel fluoroquinolone, has broad-spectrum in vitro activity against aerobic and anaerobic bacteria” (Antimicrob Agents Chemother, 2009).
Converted amounts (≈) assume the structure as drawn. The source made the active and inactive calls. The rule behind the calls is not given here.

What was measured:
[1] = system: Peptostreptococcus sp.; assay: Antibacterial activity against Peptostreptococcus sp. assessed as percent susceptible isolates by CLSI M11-A7 method; assay type: functional
[2] = system: Fusobacterium sp.; assay: Antibacterial activity against Fusobacterium sp. by CLSI M11-A7 method; assay type: functional
[3] = Drug concentration in human tears at 0.6% administered topically as single dose measured after 24 hrs; assay type: ADME; conditions: topical or ocular, read-out: Drug uptake
[4] = system: Cutibacterium acnes; assay: Antibacterial activity against Propionibacterium acnes assessed as percent susceptible isolates by CLSI M11-A7 method; assay type: functional
[5] = system: Prevotella sp.; assay: Antibacterial activity against Prevotella sp. by CLSI M11-A7 method; assay type: functional
[6] = system: Bacteroides fragilis; assay: Antibacterial activity against Bacteroides fragilis assessed as percent susceptible isolates by CLSI M11-A7 method; assay type: functional
[7] = system: Peptostreptococcus sp.; assay: Antibacterial activity against Peptostreptococcus sp. by CLSI M11-A7 method; assay type: functional
[8] = system: Bacteroides fragilis; assay: Antibacterial activity against Bacteroides fragilis by CLSI M11-A7 method; assay type: functional
[9] = system: Citrobacter koseri; assay: Antibacterial activity against Citrobacter koseri assessed as percent susceptible isolates by CLSI M7-A7 method; assay type: functional
[10] = system: Neisseria meningitidis; assay: Antibacterial activity against Neisseria meningitidis assessed as percent susceptible isolates by CLSI M7-A7 method; assay type: functional
[11] = system: Morganella morganii; assay: Antibacterial activity against Morganella morganii assessed as percent susceptible isolates by CLSI M7-A7 method; assay type: functional
[12] = system: Enterococcus faecalis; assay: Antibacterial activity against vancomycin- resistant Enterococcus faecalis assessed as percent susceptible isolates by CLSI M100-S18 method; assay type: functional
[13] = system: Klebsiella oxytoca; assay: Antibacterial activity against Klebsiella oxytoca assessed as percent susceptible isolates by CLSI M7-A7 method; assay type: functional
[14] = Antibacterial activity against Lancefield Streptococcus sp. 'group G' assessed as percent susceptible isolates by CLSI M100-S18 method; assay type: functional
[15] = system: Streptococcus sp.; assay: Antibacterial activity against Lancefield Streptococcus sp. group F assessed as percent susceptible isolates by CLSI M100-S18 method; assay type: functional
[16] = system: Streptococcus agalactiae; assay: Antibacterial activity against Streptococcus agalactiae assessed as percent susceptible isolates by CLSI M100-S18 method; assay type: functional
[17] = Antibacterial activity against Lancefield Streptococcus sp. 'group C' assessed as percent susceptible isolates by CLSI M100-S18 method; assay type: functional

N[C@@H]1CCCCN(c2c(F)cc3c(=O)c(C(=O)O)cn(C4CC4)c3c2Cl)C1 [BESIFLOXACIN]
Activity [1]: inactive | MIC50 [2]: 0.25 µg/mL (≈ 0.635 µM) | MIC90 [2]: 1 µg/mL (≈ 2.54 µM) | concentration at 24 h [3]: 1600 ng/mL | Activity [4]: inactive | MIC50 [5]: 1 µg/mL (≈ 2.54 µM) | MIC90 [5]: 4 µg/mL (≈ 10.2 µM) | Activity [6]: inactive | MIC50 [7]: 0.25 µg/mL (≈ 0.635 µM) | MIC90 [7]: 0.5 µg/mL (≈ 1.27 µM) | MIC50 [8]: 0.5 µg/mL (≈ 1.27 µM) | MIC90 [8]: 1 µg/mL (≈ 2.54 µM)

C[C@H]1COc2c(N3CCN(C)CC3)c(F)cc3c(=O)c(C(=O)O)cn1c23.C[C@H]1COc2c(N3CCN(C)CC3)c(F)cc3c(=O)c(C(=O)O)cn1c23.O [LEVOFLOXACIN]
Activity [9]: 99% | Activity [10]: 100% | Activity [11]: 76.5% | Activity [12]: 58.5% | Activity [13]: 90%

NC[C@H]1O[C@H](O[C@H]2[C@H](O)[C@@H](O[C@H]3O[C@H](CO)[C@@H](O)[C@H](N)[C@H]3O)[C@H](N)C[C@@H]2N)[C@H](N)C[C@@H]1O [TOBRAMYCIN]
Activity [14]: 74% | Activity [15]: 74% | Activity [16]: 73% | Activity [17]: 74%
